# Target: T1, Caspase-1 (Homo sapiens, UniProt P29466)
# T1 sequence (P29466 whole entry): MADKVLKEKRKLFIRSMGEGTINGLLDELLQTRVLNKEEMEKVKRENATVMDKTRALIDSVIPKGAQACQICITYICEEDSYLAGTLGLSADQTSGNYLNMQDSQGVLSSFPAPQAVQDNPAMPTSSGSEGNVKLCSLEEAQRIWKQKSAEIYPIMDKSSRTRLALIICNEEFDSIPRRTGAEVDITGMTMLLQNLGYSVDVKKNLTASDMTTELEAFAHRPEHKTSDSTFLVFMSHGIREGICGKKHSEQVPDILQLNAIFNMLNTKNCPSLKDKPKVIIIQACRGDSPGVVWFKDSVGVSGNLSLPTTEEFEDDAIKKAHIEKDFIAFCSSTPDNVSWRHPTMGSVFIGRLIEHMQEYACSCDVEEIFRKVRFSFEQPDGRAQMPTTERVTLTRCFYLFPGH
# Assay: Inhibition Assay
# Details: pH 7.5; 25 °C
# Description: All assays were performed at 100 µL total volume in triplicate and monitored for 60 minutes at room temperature in a 96-well plate format in HEPES Buffer (100 mM HEPES, 100 mM NaCl, 0.1% CHAPS, 10% sucrose, pH 7.5) on a BioTek Synergy H1 plate reader. Fluorescence was measured with excitation and emission wavelengths of 380 nm and 460 nm, respectively. Caspase-1 was activated with 100 µM DTT for 30 minutes and held constant at 5 nM for all assays. WEHD-AMC was used as a substrate for all assays at 10 µM unless otherwise specified and reactions were monitored immediately upon addition to caspase-1.
row,Structure (SMILES),IC50 [µM]
1,N#C/C(=C\c1ccc(O)c(O)c1)C(=O)OC/C=C/c1ccccc1,2.23
2,O=c1c2ccccc2[se]n1-c1ccccc1 [2-Phenyl-benzo[d]isoselenazol-3-one],4.04
3,"CC1=CC(=O)C(C(C)C)=CC1=O [2-methyl-5-(propan-2-yl)cyclohexa-2,5-diene-1,4-dione (F8)]",1.08
4,CC1(C)CCC2=C(O1)c1ccccc1C(=O)C2=O [R115 (Reactive Blue 2)],1.69
5,Cc1cc2c(C(C)C)c(O)c(O)c(C=O)c2c(O)c1-c1c(C)cc2c(C(C)C)c(O)c(O)c(C=O)c2c1O [Tash 1],1.23
6,C[C@]12C=CC(=O)C=C1CC[C@@H]1C2=CC[C@]2(C)[C@@H](C(=O)CN3CCN(c4cc(N5CCCC5)nc(N5CCCC5)n4)CC3)CC[C@@H]12 [U74389G (B9)],0.174
7,Cc1c(C)c2c(c(C)c1O)CC[C@](C)(CN1CCN(c3cc(N4CCCC4)nc(N4CCCC4)n3)CC1)O2 [U83836E (B8)],0.167

# The next lines start with the values.
row,IC50 [µM],Structure (SMILES)
1,> 10,CCCCCC#CCC#CCC#CCC#CCCCC(=O)O
2,1.8,"CCN(CC)C(=S)SSC(=S)N(CC)CC [1,1',1'',1'''-[disulfanediylbis(carbonothioylnitrilo)]tetraethane]"
3,0.6,CCCCCCCCCCCCCCCC(=O)OC[C@H](O)[C@H]1OC(=O)C(O)=C1O [Ascorbyl Palmitate]
4,> 10,"CC(Cc1ccc(O)c(O)c1)C(C)Cc1ccc(O)c(O)c1 (stereo not drawn) [LOX inhibitor, N/A]"
5,0.84,"CCCCCCCCOC(=O)/C=C/c1ccc(O)c(O)c1 [Octyl (2E)‐3‐(3,4‐dihydroxyphenyl)prop‐2‐enoate (E6)]"
6,6.76,"CC/C=C\C/C=C\C/C=C\C/C=C\C/C=C\C/C=C\CCC(=O)O [all-cis-docosa-4,7,10,13,16,19-hexaenoic acid]"

# From BindingDB's records for doi:10.1111/cbdd.12572 (Depaul University, 2015)
